The values that follow come from patent publication US8017611B2, “Pyridine and pyrazine derivatives -083” (AstraZeneca AB, priority 2007, dated 2011).

The target of one experiment is T1, recombinant Axl tyrosine kinase (Homo sapiens, UniProt P30530).
T1 construct: encompassing amino acids 473 to 894 of Axl; GST (N); made in house; host or cells: SF126 insect cells
T1 sequence (P30530 473-894): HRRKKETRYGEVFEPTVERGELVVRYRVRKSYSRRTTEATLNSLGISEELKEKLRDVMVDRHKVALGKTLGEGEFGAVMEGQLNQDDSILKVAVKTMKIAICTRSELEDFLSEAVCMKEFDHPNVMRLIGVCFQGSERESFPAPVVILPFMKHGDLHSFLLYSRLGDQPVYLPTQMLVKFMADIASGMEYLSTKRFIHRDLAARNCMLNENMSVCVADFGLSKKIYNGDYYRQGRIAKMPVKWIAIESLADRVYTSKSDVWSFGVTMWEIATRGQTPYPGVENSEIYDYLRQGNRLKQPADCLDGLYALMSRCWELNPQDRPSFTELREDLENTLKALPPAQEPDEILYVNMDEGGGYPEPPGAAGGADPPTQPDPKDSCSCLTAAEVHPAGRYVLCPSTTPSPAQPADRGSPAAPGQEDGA
As to the kind of experiment: In vitro Axl kinase assay (AlphaScreen), Test (a). Conditions: test compound at 1 μM; first value quoted. It counts as biochemical. (Bead proximity is the source of the signal in Alpha formats.)
Turning to `Nc1ncc(-c2cnn(CCN3CCC(O)CC3)c2)cc1-c1nc2ccccc2o1` [Example 31.9], the “% Axl tyrosine kinase inhibition at 1 μM concentration” value (shortened to “% Axl tyrosine kinase inhibition”) is recorded as 99.8%. On the same count and under the same terms, with `Nc1ncc(-c2cnn(CCN3CCC3)c2)cc1-c1nc2ccccc2o1` [Example 31.10] the figure was 94.3%.

On to `CC(=O)N1CCC(n2cc(-c3cnc(N)c(-c4nc5ccccc5o4)c3)cn2)CC1` [Example 34.1], for which the “% Axl tyrosine kinase inhibition” value was 99.8%. As for `Nc1ncc(-c2cnn(C3CCN(C(=O)CO)CC3)c2)cc1-c1nc2ccccc2o1` [Example 34.2], the “% Axl tyrosine kinase inhibition” value was found to be 100.0%.

As for `CC(O)C(=O)N1CCC(n2cc(-c3cnc(N)c(-c4nc5ccccc5o4)c3)cn2)CC1` (stereo not shown) [Example 34.3], the “% Axl tyrosine kinase inhibition” value is recorded as 99.7%. Regarding `Nc1ncc(-c2cnn(C3CCNCC3)c2)cc1-c1nc2ccc(F)c(F)c2o1` [Example 38.1], the “% Axl tyrosine kinase inhibition” value turned out to be 99.5%. `Nc1ncc(-c2cnn(C3CCNCC3)c2)cc1-c1nc2cccc(F)c2o1` [Example 38.3]: the “% Axl tyrosine kinase inhibition” value stood at 100.0%. Same read-out and setting: the result for `COc1cccc2nc(-c3cc(-c4cnn(C5CCNCC5)c4)cnc3N)oc12` [Example 38.5] reads 100.0%; that for `COc1cccc2oc(-c3cc(-c4cnn(C5CCNCC5)c4)cnc3N)nc12` [Example 38A.1], 97.8%. Same read-out and setting: the result for `Nc1ncc(-c2cnn(C3CCNCC3)c2)cc1-c1nc2c(F)cccc2o1` [Example 38A.2] reads 100.0%; that for `N#Cc1cccc2oc(-c3cc(-c4cnn(C5CCNCC5)c4)cnc3N)nc12` [Example 38A.3], 99.9%; that for `CN1CCC(n2cc(-c3cnc(N)c(-c4nc5cnccc5o4)c3)cn2)CC1` [Example 41.1], 99.8%. Regarding `CN1CCCC(n2cc(-c3cnc(N)c(-c4nc5ccccc5o4)c3)cn2)C1` (stereo not shown) [Example 41.2], the “% Axl tyrosine kinase inhibition” value worked out at 99.3%. For the compound `CN1CCC(n2cc(-c3cnc(N)c(-c4nc5ncccc5o4)c3)cn2)CC1` [Example 41.4], the “% Axl tyrosine kinase inhibition” value is reported as 99.8%.

Consider `CN1CCC(Cn2cc(-c3cnc(N)c(-c4nc5ccccc5o4)c3)cn2)CC1` [Example 41.6], for which the “% Axl tyrosine kinase inhibition” value is on record as 99.9%.

Turning to `CN1CC(n2cc(-c3cnc(N)c(-c4nc5ccccc5o4)c3)cn2)C1` [Example 41.8], the “% Axl tyrosine kinase inhibition” value amounted to 99.7%. With `CN1CCC(n2cc(-c3cnc(N)c(-c4nc5ccccc5o4)c3)cn2)C1` (stereo not shown) [Example 41.9], the “% Axl tyrosine kinase inhibition” value was determined as 100.0%. In the case of `CN1CCC(n2cc(-c3cnc(N)c(-c4nc5cccc(F)c5o4)c3)cn2)CC1` [Example 41.10], the “% Axl tyrosine kinase inhibition” value is on record as 99.7%. As to `CN1CC(Cn2cc(-c3cnc(N)c(-c4nc5ccccc5o4)c3)cn2)C1` [Example 41.11], the “% Axl tyrosine kinase inhibition” value is 74.7%. As to `CCOc1nn(C2CCN(C)CC2)cc1-c1cnc(N)c(-c2nc3ccccc3o2)c1` [Example 41.13], the “% Axl tyrosine kinase inhibition” value was 100.0%.

`COc1nn(C2CCN(C)CC2)cc1-c1cnc(N)c(-c2nc3ccccc3o2)c1` [Example 41.14]: the “% Axl tyrosine kinase inhibition” value is 100.0%.

Take `CN1CCC(Cn2cc(-c3cnc(N)c(-c4nc5ccccc5o4)c3)cn2)C1` (stereo not shown) [Example 41.15]: the “% Axl tyrosine kinase inhibition” value is recorded as 98.4%. Same read-out and setting: the result for `CN1CCC(n2cc(-c3cnc(N)c(-c4nc5ccc(F)c(F)c5o4)c3)cn2)CC1` [Example 41.16] reads 98.3%; that for `Cc1nn(C2CCN(C)CC2)c(C)c1-c1cnc(N)c(-c2nc3ccccc3o2)c1` [Example 41.17], 84.8%. Still for that read-out and setting: the result for `Cc1c(-c2cnc(N)c(-c3nc4ccccc4o3)c2)cnn1C1CCN(C)CC1` [Example 41.18] reads 100.0%; that for `Cc1nn(C2CCN(C)CC2)cc1-c1cnc(N)c(-c2nc3cccnc3o2)c1` [Example 41.20], 99.7%. On to `Cc1nn(C2CCN(C)CC2)cc1-c1cnc(N)c(-c2nc3ccccc3o2)n1` [Example 41.21], for which the “% Axl tyrosine kinase inhibition” value is listed as 100.0%. Same read-out and setting: the result for `Cc1nn(C2CCN(C)CC2)cc1-c1cnc(N)c(-c2nc3ncccc3o2)c1` [Example 41.22] reads 100.0%; that for `Cc1nn(C2CCN(C)CC2)cc1-c1cnc(N)c(-c2nc3c(F)cccc3o2)c1` [Example 41.23], 100.0%; that for `COc1cccc2oc(-c3cc(-c4cnn(C5CCN(C)CC5)c4)cnc3N)nc12` [Example 41.24], 92.1%. The same measure, in the same setting: with `CN1CCC(n2cc(-c3cnc(N)c(-c4nc5c(C#N)cccc5o4)c3)cn2)CC1` [Example 41.25] the figure was 99.8%; with `COc1cccc2nc(-c3cc(-c4cnn(C5CCN(C)CC5)c4)cnc3N)oc12` [Example 41.27], 100.0%; with `CN1CCC(n2cc(-c3cnc(N)c(-c4nc5ccccc5o4)c3)c(C#N)n2)CC1` [Example 41.28], 100.0%. In the case of `CC(O)c1nn(C2CCN(C)CC2)cc1-c1cnc(N)c(-c2nc3ccccc3o2)c1` (stereo not shown) [Example 41.29], the “% Axl tyrosine kinase inhibition” value is 99.9%. Same read-out and setting: the result for `CN1CCC(n2cc(-c3cnc(N)c(-c4nc5ccccc5o4)c3)c(C(=O)N(C)C)n2)CC1` [Example 41.30] reads 99.5%. For `CN1CCC(n2cc(-c3cnc(N)c(-c4nc5ccccc5o4)c3)c(N(C)C)n2)CC1` [Example 41.31], the “% Axl tyrosine kinase inhibition” value amounted to 99.9%. Regarding `CN1CCC(n2cc(-c3cnc(N)c(-c4nc5c(F)cccc5o4)c3)c(CO)n2)CC1` [Example 41.32], the “% Axl tyrosine kinase inhibition” value is given as 100.0%.

Regarding `CNC(=O)c1nn(C2CCN(C)CC2)cc1-c1cnc(N)c(-c2nc3ccccc3o2)c1` [Example 41.33], the “% Axl tyrosine kinase inhibition” value was found to be 99.6%.

For `COCc1nn(C2CCN(C)CC2)cc1-c1cnc(N)c(-c2nc3c(F)cccc3o2)c1` [Example 41.34], the “% Axl tyrosine kinase inhibition” value is reported as 100.0%. Same read-out and setting: the result for `CN1CCC(n2cc(-c3cnc(N)c(-c4nc5ccccc5o4)c3)c(C(N)=O)n2)CC1` [Example 41.35] reads 99.8%; that for `CNC(=O)c1cccc2nc(-c3cc(-c4cnn(C5CCN(C)CC5)c4)cnc3N)oc12` [Example 41.36], 100.0%. On the same count and under the same terms, with `CN1CCC(n2cc(-c3cnc(N)c(-c4nc5c(F)cccc5o4)c3)c(C(=O)N(C)C)n2)CC1` [Example 41.37] the figure was 99.5%. The same measure, in the same setting: the result for `COCc1nn(C2CCN(C)CC2)cc1-c1cnc(N)c(-c2nc3c(C#N)cccc3o2)c1` [Example 41.39] reads 100.0%; that for `Cc1nn(C2CCN(C)CC2)cc1-c1cnc(N)c(-c2nc3c(C#N)cccc3o2)c1` [Example 41.40], 99.2%.

Still in this experiment, the particulars now being: test compound at 1 μM; first value quoted; read-out: % Axl tyrosine kinase inhibition at 1 μM concentration.
As to `Nc1ncc(-c2cnn(CCN3CCNCC3)c2)cc1-c1nc2ccccc2o1` [Example 32, 3-(1,3-benzoxazol-2-yl)-5-[1-(2-piperazin-1-ylethyl)pyrazol-4-yl]pyridin-2-amine], the inhibition at 1 µM turned out to be 99.9%.

In the case of `COCC(=O)N1CCC(n2cc(-c3cnc(N)c(-c4nc5ccccc5o4)c3)cn2)CC1` [Example 33, 1-[4-[4-[6-amino-5-(1,3-benzoxazol-2-yl)-3-pyridyl]pyrazol-1-yl]-1-piperidyl]-2-methoxy-ethanone], the inhibition at 1 µM came to 99.9%.

Regarding `COc1ccc2nc(-c3cc(-c4cnn(C5CCN(C)CC5)c4)cnc3N)oc2c1` [Example 35, 3-(6-methoxy-1,3-benzoxazol-2-yl)-5-[1-(1-methyl-4-piperidyl)pyrazol-4-yl]pyridin-2-amine], the inhibition at 1 µM came to 99.6%.

Take `COc1ccc2oc(-c3cc(-c4cnn(C5CCN(C)CC5)c4)cnc3N)nc2c1` [Example 35A, 3-(5-methoxy-1,3-benzoxazol-2-yl)-5-[1-(1-methyl-4-piperidyl)pyrazol-4-yl]pyridin-2-amine]: the inhibition at 1 µM was determined as 100%. On the same count and under the same terms, with `Cc1cccc2nc(-c3cc(-c4cnn(C5CCN(C)CC5)c4)cnc3N)oc12` [Example 36, 3-(7-methyl-1,3-benzoxazol-2-yl)-5-[1-(1-methyl-4-piperidyl)pyrazol-4-yl]pyridin-2-amine] the figure was 100%; with `Nc1ncc(-c2cnn(C3CCNCC3)c2)cc1-c1nc2ncc(F)cc2o1` [Example 37, 3-(6-fluorooxazolo[4,5-b]pyridin-2-yl)-5-[1-(4-piperidyl)pyrazol-4-yl]pyridin-2-amine], 98.4%. For the compound `CNC(=O)[C@@H]1C[C@@H](n2cc(-c3cnc(N)c(-c4nc5ccccc5o4)c3)cn2)CN1C` [Example 39, (2S,4R)-4-[4-[6-amino-5-(1,3-benzoxazol-2-yl)-3-pyridyl]pyrazol-1-yl]-N,1-dimethyl-pyrrolidine-2-carboxamide], the inhibition at 1 µM worked out at 99.9%.

On to `Nc1ncc(-c2cn(C3CCNCC3)nn2)cc1-c1nc2ccccc2o1` [Example 40, 3-(1,3-benzoxazol-2-yl)-5-[1-(4-piperidyl)triazol-4-yl]pyridin-2-amine], for which the inhibition at 1 µM is 100%.
